Data set [1] has as its target T1, Luciferin 4-monooxygenase (Photinus pyralis, UniProt P08659). As to the kind of experiment: Counter Screen for Luciferase-based Assay Positives. [Related pubchem assays: 620, 618, 411 ]. In general terms: Counterscreens check selectivity or assay interference.
Data set [2] can be described thus: Luminescence Cell-Based Dose Response HTS to Identify Inhibitors of 5'UTR Stem-Loop Driven Prion Protein mRNA Translation in H4 Neuroglioblastoma Cells. [Related pubchem assays: 1827 (Project Summary), 1813 (Primary HTS)]. In kind it is functional.
Data set [3] in a line: alpha-synuclein stem-loop luciferase translation blockers – H4 neuroglioma cells, luminescence, confirmation (AID 1988). In kind it is functional, cell-based.
In data set [4] the target is T1, Luciferin 4-monooxygenase. As to the kind of experiment: inhibition of purified Photinus pyralis luciferase – biochemical, luminescence, dose response (AID 1891).
Data set [5] can be described thus: Luminescence Cell-Based Dose Confirmation HTS to Identify Inhibitors of Platelet Dense Granule Release. [Related pubchem assays: 1663 (Primary HTS), 1678 (Summary of Project)]. In kind it is functional.
For the next data set, the system named is HT-1080. As to the kind of experiment: HT1080 cell viability loss – fluorescence readout (AID 620). In kind it is functional, cell-based. To be noted: Homo sapiens.
Data set [6] can be described thus: HPDE-C7 pancreatic duct cell viability loss – fluorescence, HTS (AID 430). In kind it is functional, cell-based. To be noted: Homo sapiens.
Data set [7] is described as follows: viability loss of HPDE-C7K cells – cell-based, fluorescence, HTS, primary screen (AID 431). In kind it is functional. To be noted: Homo sapiens.
For data set [8], the target named is Voltage-dependent T-type calcium channel subunit alpha-1H (Homo sapiens, UniProt O95180). In kind it is functional.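 Note: channel activity triggered by adding a high calcium stimulation buffer.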
For data set [9], the target named is Mitogen-activated protein kinase 10 (Homo sapiens, UniProt P53779). As to the kind of experiment: Dose response biochemical screening assay for inhibitors of c-Jun N-Terminal Kinase 3 (JNK3). [Related pubchem assays: 746 ].
Data set [10] addresses NAD-dependent protein deacylase sirtuin-5, mitochondrial (Homo sapiens, UniProt Q9NXA8). Put plainly: sirtuin-5 deacylation blockers, concentration series – biochemical, fluorescence imaging, cherry-pick, set 5, dose response (AID 720591).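 Note: desuccinylation of succinyl peptide AMC substrate read as fluorescence after trypsin release; potency of inhibitors that lower fluorescence and may act on trypsin instead.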
The next data set deals with Estrogen receptor beta (Homo sapiens, UniProt Q92731).
For data set [11], the target named is T2, Aryl hydrocarbon receptor (Homo sapiens, UniProt P35869).
T2 sequence (P35869 whole entry): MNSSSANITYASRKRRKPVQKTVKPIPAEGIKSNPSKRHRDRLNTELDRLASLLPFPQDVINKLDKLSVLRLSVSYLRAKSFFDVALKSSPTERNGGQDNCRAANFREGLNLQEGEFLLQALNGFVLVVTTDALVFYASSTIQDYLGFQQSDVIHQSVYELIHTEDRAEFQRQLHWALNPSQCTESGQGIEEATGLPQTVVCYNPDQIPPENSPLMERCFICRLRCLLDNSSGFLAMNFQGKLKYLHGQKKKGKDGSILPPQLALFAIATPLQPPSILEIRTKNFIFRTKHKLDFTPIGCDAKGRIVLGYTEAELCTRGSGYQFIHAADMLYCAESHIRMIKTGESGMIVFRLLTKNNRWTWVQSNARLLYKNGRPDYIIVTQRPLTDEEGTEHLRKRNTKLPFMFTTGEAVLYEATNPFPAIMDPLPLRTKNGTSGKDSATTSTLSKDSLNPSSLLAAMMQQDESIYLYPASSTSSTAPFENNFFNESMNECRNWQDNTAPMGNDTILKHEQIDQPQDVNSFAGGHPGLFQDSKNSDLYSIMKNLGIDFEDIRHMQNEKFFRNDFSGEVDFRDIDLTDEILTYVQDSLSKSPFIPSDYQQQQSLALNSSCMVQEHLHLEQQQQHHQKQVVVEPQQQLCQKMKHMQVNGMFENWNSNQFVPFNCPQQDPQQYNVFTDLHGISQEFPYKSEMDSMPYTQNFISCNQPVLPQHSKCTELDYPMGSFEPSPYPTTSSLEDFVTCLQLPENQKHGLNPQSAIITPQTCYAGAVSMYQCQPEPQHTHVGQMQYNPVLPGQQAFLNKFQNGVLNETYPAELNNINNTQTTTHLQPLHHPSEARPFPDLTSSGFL
Put plainly: Luminescence-based cell-based high throughput dose response assay for activators of the Aryl Hydrocarbon Receptor (AHR). [Related pubchem assays: 2796 (Primary screen (AHR activators in singlicate)), 2845 (Confirmation screen (AHR activators in triplicate)), 434939 (Counterscreen (PXR activators in triplicate)), 2804 (Summary (AHR activators))]. In kind it is ADME.

The target of data set [12] is Peroxisome proliferator-activated receptor gamma/Nuclear receptor coactivator 2 (Homo sapiens, UniProt P37231). In kind it is functional.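 Note: agonist potency for raising coactivator recruitment to the receptor.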
Data set [13] concerns the target Peroxisome proliferator-activated receptor gamma/Nuclear receptor coactivator 1 (Homo sapiens, UniProt P37231). In kind it is functional.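 Note: agonist potency as compounds enhance coactivator SRC-1 recruitment to PPARgamma.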
Data set [14] has as its target Peroxisome proliferator-activated receptor gamma/Nuclear receptor coactivator 3 (Homo sapiens, UniProt P37231). In kind it is functional.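 Note: agonist potency for raising coactivator recruitment to the receptor.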
Data set [15] is described as follows: reduction of Shn3 3'UTR-driven luciferase in osteoblasts – cell-based, Clone20 osteoblasts, firefly luciferase, cherry-picked, dose response (AID 624132).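 Note: firefly luciferase luminescence from reporter carrying the Shn3 3'UTR in osteoblasts.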 In kind it is functional.
Data set [16] is described as follows: loss of viability in HepG2 cells – cell-based, CellTiter-Glo, cherry-picked, cytotoxicity control for Shn3 inhibitor project, dose response (AID 624134). In kind it is functional. In general terms: Cellular ATP, detected with luciferase, serves as a proxy for viable cell number.
Data set [17] is described as follows: non-specific 3'UTR reporter inhibition in Clone20-Shn3RL – cell-based, Renilla luciferase, cherry-picked, counter-screen for Shn3 inhibitor project, dose response (AID 624133). In kind it is functional.
For a further data set, the target named is T3, Caspase-6 (Homo sapiens, UniProt P55212).
T3 sequence (P55212 whole entry): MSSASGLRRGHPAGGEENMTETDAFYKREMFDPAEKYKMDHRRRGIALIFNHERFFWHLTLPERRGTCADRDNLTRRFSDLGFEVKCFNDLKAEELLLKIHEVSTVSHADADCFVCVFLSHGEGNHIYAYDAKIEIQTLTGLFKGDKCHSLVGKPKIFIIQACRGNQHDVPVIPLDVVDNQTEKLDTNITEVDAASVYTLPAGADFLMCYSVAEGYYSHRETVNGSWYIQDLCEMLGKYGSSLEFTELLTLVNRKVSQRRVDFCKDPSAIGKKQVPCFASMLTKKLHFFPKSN
As to the kind of experiment: inhibition of CASP6 peptide cleavage – biochemical, VEID-R110 fluorescence, cherry-pick, dose response (AID 720632).

The nature of data set [18]: A Cell Based Secondary Assay To Explore Cytotoxicity of Compounds that Sensitize Mycobacterium Tuberculosis to Beta-Lactam Antibiotics. In kind it is functional.
The target in another data set is Paired box protein Pax-8 (Homo sapiens, UniProt Q06710). As to the kind of experiment: PAX8 transcriptional activity inhibition in RMG-I – RMG-I cells, luciferase, cherry-pick, dose response (AID 687027).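 Note: luciferase reporter driven by Pax8 target thyroperoxidase promoter measured by SteadyGlo luminescence.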 In kind it is functional, cell-based.
A short description of data set [19]: A2780 cell killing – plate reader, dry powder samples, cytotoxicity control, dose response (AID 743046). In kind it is functional, cell-based.
Data set [20] in a line: OVCAR-3 cell viability loss – plate reader, dry powder samples, PAX8 inhibitor project, dose response (AID 743044). In kind it is functional, cell-based.
A short description of data set [21]: OVCAR8 cell viability loss – plate reader, dry powder samples, PAX8 project, dose response (AID 743197). In kind it is functional, cell-based. To be noted: OVCAR-8.
Data set [22] in a line: Luminescence Cell-Based Dose Retest to Confirm Inhibitors of Cancer Stem Cells. [Related pubchem assays (depositor defined):AID2717, AID2721]. In kind it is functional. To be noted: Homo sapiens.
A further data set has as its target Cytochrome P450 2C19 (Homo sapiens, UniProt P33261). As to the kind of experiment: Cytochrome panel assay with activity outcomes. Panel member name: p450-cyp2c19 Compounds with AC50 equal or less than 10 uM are considered active. In kind it is functional. To be noted: read-out: AC50.
For a further data set, the target named is T4, Cytochrome P450 1A2 (Homo sapiens, UniProt P05177).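 Note: PubChem cytochrome P450 panel assay, CYP1A2 panel member.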
T4 sequence (P05177 whole entry): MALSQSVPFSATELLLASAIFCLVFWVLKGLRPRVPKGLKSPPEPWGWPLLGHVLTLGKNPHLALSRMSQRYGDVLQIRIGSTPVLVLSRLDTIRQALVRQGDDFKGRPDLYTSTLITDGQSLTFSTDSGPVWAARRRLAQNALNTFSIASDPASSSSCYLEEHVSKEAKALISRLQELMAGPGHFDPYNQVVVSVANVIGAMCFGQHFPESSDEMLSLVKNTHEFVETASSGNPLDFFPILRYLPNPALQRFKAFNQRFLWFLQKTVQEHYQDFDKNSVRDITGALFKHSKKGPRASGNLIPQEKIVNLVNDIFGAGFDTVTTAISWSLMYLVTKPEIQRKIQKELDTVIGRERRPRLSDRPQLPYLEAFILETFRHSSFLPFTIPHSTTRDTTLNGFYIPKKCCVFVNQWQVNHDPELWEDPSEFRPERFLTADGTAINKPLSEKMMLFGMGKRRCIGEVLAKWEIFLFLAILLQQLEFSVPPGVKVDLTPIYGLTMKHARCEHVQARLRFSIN

Another data set concerns the target Cytochrome P450 2D6 (Homo sapiens, UniProt P10635).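 Note: CYP2D6 member of a cytochrome P450 panel assay.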

Active and inactive are the calls of the source.

Sequence of Mitogen-activated protein kinase 10 (P53779 whole entry): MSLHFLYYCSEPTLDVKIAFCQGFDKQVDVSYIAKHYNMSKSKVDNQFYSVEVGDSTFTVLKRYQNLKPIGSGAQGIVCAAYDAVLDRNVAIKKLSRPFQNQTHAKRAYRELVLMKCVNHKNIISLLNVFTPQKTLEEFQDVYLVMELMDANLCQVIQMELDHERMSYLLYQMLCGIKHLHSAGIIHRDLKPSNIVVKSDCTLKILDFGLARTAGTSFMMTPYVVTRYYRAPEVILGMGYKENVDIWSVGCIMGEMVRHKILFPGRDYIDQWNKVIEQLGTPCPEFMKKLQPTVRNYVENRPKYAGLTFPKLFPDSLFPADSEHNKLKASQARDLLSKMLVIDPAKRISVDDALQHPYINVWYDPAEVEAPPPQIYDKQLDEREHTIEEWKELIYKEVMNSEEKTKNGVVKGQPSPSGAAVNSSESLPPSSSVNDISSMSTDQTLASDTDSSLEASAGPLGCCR
T1 sequence (P08659 whole entry): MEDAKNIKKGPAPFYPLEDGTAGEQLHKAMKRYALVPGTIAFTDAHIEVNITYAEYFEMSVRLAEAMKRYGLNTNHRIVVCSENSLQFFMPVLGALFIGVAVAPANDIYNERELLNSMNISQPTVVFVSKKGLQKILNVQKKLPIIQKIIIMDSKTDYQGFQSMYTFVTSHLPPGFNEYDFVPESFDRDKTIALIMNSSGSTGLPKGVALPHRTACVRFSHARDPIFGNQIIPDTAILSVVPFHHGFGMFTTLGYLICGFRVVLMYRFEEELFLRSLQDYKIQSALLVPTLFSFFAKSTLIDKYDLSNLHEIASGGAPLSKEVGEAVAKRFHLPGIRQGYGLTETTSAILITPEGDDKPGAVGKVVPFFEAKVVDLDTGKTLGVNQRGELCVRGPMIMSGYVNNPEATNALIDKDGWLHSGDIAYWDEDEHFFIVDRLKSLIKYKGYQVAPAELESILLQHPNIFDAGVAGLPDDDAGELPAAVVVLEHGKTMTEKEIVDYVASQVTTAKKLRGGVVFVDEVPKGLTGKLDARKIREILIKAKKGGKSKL
Sequence of Peroxisome proliferator-activated receptor gamma/Nuclear receptor coactivator 3 (P37231 whole entry): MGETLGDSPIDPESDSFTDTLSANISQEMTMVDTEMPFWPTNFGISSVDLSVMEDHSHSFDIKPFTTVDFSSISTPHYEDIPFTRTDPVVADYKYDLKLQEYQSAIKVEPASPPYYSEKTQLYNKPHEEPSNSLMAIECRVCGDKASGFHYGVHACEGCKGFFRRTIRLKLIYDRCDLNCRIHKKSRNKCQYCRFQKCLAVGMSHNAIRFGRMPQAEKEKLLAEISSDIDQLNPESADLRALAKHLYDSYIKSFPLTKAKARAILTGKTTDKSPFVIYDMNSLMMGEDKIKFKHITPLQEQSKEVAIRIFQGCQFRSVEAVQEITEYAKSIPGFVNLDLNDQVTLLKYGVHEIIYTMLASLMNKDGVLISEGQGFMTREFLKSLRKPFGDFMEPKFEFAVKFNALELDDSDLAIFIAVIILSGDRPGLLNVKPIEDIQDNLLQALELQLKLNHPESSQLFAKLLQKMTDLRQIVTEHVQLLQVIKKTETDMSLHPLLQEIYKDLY
Sequence of Peroxisome proliferator-activated receptor gamma/Nuclear receptor coactivator 3 (Q9Y6Q9 whole entry, further chain): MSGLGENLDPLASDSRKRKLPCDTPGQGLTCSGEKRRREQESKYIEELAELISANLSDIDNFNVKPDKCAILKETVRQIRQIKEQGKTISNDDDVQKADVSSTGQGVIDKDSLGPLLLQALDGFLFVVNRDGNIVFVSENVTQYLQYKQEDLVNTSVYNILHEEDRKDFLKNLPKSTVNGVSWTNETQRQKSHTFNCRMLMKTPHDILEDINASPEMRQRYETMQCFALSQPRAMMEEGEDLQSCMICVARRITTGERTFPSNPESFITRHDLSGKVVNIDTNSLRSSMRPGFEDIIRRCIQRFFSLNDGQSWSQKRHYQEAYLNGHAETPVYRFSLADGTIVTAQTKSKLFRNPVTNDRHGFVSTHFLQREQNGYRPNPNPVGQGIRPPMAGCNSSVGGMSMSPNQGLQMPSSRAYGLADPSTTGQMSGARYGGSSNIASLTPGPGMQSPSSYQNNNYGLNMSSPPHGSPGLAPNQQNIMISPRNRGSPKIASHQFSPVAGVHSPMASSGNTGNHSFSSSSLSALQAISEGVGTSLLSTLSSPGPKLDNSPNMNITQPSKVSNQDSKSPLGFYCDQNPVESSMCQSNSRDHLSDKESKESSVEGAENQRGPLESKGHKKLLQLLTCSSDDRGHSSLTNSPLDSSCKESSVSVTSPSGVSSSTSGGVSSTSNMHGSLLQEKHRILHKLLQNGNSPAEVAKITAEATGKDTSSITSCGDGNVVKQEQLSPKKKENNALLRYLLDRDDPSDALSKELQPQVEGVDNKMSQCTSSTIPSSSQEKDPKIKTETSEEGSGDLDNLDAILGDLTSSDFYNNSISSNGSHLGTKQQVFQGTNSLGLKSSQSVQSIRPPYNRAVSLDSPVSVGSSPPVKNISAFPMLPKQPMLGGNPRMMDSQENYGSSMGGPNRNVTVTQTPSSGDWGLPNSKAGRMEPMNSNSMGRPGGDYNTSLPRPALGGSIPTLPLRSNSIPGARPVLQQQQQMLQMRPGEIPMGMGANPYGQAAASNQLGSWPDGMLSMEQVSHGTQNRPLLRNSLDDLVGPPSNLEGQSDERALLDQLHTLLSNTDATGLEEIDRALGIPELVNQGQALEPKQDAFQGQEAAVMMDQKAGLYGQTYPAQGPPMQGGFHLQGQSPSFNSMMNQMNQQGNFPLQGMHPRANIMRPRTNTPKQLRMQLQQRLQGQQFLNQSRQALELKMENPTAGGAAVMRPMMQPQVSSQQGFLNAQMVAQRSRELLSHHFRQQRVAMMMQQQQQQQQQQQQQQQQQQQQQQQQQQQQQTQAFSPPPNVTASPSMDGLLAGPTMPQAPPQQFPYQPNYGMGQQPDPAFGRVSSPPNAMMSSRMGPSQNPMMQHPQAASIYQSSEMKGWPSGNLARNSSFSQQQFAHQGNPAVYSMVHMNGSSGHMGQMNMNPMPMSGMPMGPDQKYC
Sequence of Peroxisome proliferator-activated receptor gamma/Nuclear receptor coactivator 2 (P37231 whole entry): as the sequence (P37231 whole entry) above
Sequence of Peroxisome proliferator-activated receptor gamma/Nuclear receptor coactivator 2 (Q15596 whole entry, further chain): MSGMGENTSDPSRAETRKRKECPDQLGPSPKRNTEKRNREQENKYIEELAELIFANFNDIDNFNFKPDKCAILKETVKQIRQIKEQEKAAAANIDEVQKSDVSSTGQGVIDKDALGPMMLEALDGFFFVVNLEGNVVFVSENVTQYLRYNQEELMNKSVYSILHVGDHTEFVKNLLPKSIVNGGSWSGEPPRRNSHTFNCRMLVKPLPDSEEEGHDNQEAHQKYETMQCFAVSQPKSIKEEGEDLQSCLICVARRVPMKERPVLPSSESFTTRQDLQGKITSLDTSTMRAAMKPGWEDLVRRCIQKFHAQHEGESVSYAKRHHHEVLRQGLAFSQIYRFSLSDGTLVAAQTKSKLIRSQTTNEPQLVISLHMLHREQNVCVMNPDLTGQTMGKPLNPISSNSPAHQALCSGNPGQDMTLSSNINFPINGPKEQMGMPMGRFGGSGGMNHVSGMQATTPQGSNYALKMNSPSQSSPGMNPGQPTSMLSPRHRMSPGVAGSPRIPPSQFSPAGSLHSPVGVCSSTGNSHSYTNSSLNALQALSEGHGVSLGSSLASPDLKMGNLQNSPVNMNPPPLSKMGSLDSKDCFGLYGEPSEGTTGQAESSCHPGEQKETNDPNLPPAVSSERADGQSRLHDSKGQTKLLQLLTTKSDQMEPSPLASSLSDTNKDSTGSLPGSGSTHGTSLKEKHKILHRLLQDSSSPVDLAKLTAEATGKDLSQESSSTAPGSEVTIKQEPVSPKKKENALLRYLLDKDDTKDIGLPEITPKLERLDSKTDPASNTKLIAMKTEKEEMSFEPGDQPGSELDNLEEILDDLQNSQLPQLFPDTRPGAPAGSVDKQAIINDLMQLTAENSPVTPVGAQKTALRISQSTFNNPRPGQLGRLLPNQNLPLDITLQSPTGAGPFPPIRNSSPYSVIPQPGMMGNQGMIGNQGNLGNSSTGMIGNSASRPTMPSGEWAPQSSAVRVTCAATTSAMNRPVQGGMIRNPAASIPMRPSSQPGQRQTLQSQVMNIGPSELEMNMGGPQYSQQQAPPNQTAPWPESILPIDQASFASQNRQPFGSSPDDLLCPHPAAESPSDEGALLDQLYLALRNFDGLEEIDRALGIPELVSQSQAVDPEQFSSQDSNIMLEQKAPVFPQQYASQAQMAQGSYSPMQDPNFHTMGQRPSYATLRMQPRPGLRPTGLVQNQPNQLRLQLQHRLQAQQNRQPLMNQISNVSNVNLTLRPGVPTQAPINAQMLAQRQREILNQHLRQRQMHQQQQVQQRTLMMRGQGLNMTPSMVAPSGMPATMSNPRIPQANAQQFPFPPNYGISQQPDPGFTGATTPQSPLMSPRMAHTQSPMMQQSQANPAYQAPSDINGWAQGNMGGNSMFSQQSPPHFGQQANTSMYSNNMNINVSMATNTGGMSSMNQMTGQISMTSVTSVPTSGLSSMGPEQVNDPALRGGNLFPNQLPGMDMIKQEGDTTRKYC

As usually defined, the EC50 is the concentration giving half of the maximal effect. With `O=C(Nc1cccc(O)c1)c1noc2c1CCCCC2`, the EC50 in data set [1] is > 100 µM (not active); in data set [2], > 30 µM (not active); in data set [3], 8.89 µM (active); in data set [4] it was 2.87 µM (active); in [5], 3.4 µM (active); in the data set on HT-1080 it was > 50 µM (not active).
With `O=C(Nc1ncc(Br)s1)C(Cc1ccccc1)n1cccc1` (stereo unspecified), the EC50 is 11.9 µM (active) in data set [6], 13.2 µM (active) in [7] and 1.33 µM (active) in data set [8].
In general, IC50 refers to the midpoint of a concentration-inhibition curve. Regarding `COc1ccc(CC(=O)Nc2nc3ccccc3s2)cc1S(=O)(=O)N1CCOCC1`, in data set [9], the IC50 is 24.7 µM (not active).
One may read the AC50 as the concentration giving half of the maximal activity seen. On to `COc1ccc(CC(=O)NC(C)c2nnc(SCCOc3ccc(OC)cc3)n2C)cc1` (stereo unspecified), for which the AC50 in data set [10] was 24.2 µM (active).
Take `CC(=O)Nc1ccc(S(=O)(=O)N2CCC(n3cnc4cc(F)ccc43)CC2)cc1`: the 50% inhibitory concentration (IC50) in [9] is 32.2 µM (not active).
As for `COc1cccc(-c2nn(C)c3sc(C(=O)N4CCN(c5ccccn5)CC4)cc23)c1`, the results for the EC50 in data set [6] and in [7] were 15.2 µM (active) and 14 µM (active), respectively.
Turning to `O=C(Nc1cnc2ccccn2c1=O)c1ccc(F)cc1`, the IC50 against Estrogen receptor beta is reported as > 50 µM (not active).
As for `COc1ccc(Cn2c(C)c(C)c(C#N)c2NC(=O)Nc2cccc(C)c2)cc1`, at Estrogen receptor beta, the IC50 is recorded as > 50 µM (not active).
`Cc1csc(SCC(=O)Nc2ccc(Cl)cn2)n1`: in data set [11], the EC50 is 1.54 µM (active).
On to `C=CCn1c(=O)c2ccccc2n2c(SCC(=O)c3ccccc3)nnc12`, for which the EC50 in [12], in data set [13] and in data set [14] was > 79.4 µM (not active) each time.
As for `Cc1ccc(-c2nc3cc(N)ccc3o2)c(C)c1`, the EC50 was 1.95 µM (active) in [1] and > 50 µM (not active) with HT-1080.
`Cc1cc(C(=O)NNS(=O)(=O)c2cc(C(=O)O)ccc2Cl)c(C)n1-c1ccccc1`: the AC50 in [15] is 25.7 µM (active); in [16], > 70 µM (inactive); in [17], 16.9 µM (active); on Caspase-6, 23.2 µM (active).
Regarding `COc1cc(C(=O)NCc2cn3ccccc3n2)cc(OC)c1OC`, the IC50 in [9] is 7.87 µM (active).
On to `COC(=O)c1ccc(S(=O)(=O)c2ccc(C(=O)OC)s2)s1`, for which the results for the EC50 in [12], in data set [13] and in data set [14] were 27.1 µM (not active), 24.6 µM (not active) and 36.7 µM (not active), respectively.
Take `O=C(O)CCCC(=O)Nc1cc([N+](=O)[O-])ccc1O`: the EC50 in [12], in data set [13] and in data set [14] was > 79.4 µM (not active) each time.
The CC50 is the concentration giving 50% cytotoxicity. With `O=C(/C=C/c1ccccc1[N+](=O)[O-])c1ccc(F)cc1`, in [18], the CC50 was > 40 µM (active).
`C[C@H](CO)N1C[C@H](C)[C@@H](CN(C)Cc2ccc(C(F)(F)F)cc2)OCCCC[C@H](C)Oc2ccc(NC(=O)Nc3ccc(F)cc3)cc2C1=O`: the AC50 on Paired box protein Pax-8 is 9.37 µM (active); in data set [19], 46.6 µM (active); in [20], 45.4 µM (active); in [21], 39.2 µM (active).
For `O=C(c1ccncc1)N1CCCCN2[C@H](C1)[C@H](c1ccc(C#Cc3ccccn3)cc1)[C@@H]2CO`, the AC50 on Caspase-6 was 50.4 µM (active).
For `Oc1oc(-c2ccccc2)nc1/C=N/c1nccs1`, the EC50 in data set [11] was 12.3 µM (not active).
Take `CC(/C=C/c1cccc([N+](=O)[O-])c1)=N/NC(=O)c1cccnc1`: the EC50 in [11] is reported as > 91.6 µM (not active).
With `CC(C)(Sc1ccc(CCN(CCCCC2CCCCC2)C(=O)NC2CCCCC2)cc1)C(=O)O` [GW7647], the AC50 in [22] is 4.46 µM (active); at Cytochrome P450 2C19, 25.1 µM (inconclusive); in [10] it was 7.9 µM (active); on Cytochrome P450 1A2, 39.8 µM (inconclusive); on Cytochrome P450 2D6, “inconclusive”.

For the origin of these results see ChEMBL document CHEMBL1201862, “PubChem BioAssay data set” (2004).
